Reference: US12187742B2 (XRAD Therapeutics, Inc., priority 2018, dated 2025)
Structures can show the parent of a compound that is named as a salt.

Experiments:
ATM = ATM (Homo sapiens (Human), UniProt Q13315); assay: ATM in Cell Western Assay (pKAP1 in etoposide-treated MCF-7 cells); format: cell-based; settings: MCF-7 cells, etoposide 100 μM, 1 hr, pKAP1 readout
Method in brief: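 Cells received compounds in a 10-dose, 3-fold series from a 1 μM final top concentration, then 100 μM etoposide, for 1 hr at 37° C. They were then fixed with paraformaldehyde and permeabilized with 0.1% Triton X-100. After immunostaining, plates were scanned on an infrared imager.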

DNA-PK = DNA-PK (Homo sapiens (Human), UniProt P78527); assay: DNA-PK Enzyme-Linked Immunosorbent Assay (phosphorylation of GST-p53 (1-101) peptide); format: biochemical; settings: ELISA, ATP 20 μM
Method in brief: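 ELISA with plate-bound GST-p53 (1-101) phosphorylated by DNA-PK (0.1 μg/mL final) with 20 μM ATP for 1 h at 25 °C. Compounds tested over 10 3-fold doses from 100 nM top final. Phospho-p53 Ser15 detected by antibody, HRP and TMB, absorbance at 450 nm.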

Sequence of ATM (Q13315 whole entry): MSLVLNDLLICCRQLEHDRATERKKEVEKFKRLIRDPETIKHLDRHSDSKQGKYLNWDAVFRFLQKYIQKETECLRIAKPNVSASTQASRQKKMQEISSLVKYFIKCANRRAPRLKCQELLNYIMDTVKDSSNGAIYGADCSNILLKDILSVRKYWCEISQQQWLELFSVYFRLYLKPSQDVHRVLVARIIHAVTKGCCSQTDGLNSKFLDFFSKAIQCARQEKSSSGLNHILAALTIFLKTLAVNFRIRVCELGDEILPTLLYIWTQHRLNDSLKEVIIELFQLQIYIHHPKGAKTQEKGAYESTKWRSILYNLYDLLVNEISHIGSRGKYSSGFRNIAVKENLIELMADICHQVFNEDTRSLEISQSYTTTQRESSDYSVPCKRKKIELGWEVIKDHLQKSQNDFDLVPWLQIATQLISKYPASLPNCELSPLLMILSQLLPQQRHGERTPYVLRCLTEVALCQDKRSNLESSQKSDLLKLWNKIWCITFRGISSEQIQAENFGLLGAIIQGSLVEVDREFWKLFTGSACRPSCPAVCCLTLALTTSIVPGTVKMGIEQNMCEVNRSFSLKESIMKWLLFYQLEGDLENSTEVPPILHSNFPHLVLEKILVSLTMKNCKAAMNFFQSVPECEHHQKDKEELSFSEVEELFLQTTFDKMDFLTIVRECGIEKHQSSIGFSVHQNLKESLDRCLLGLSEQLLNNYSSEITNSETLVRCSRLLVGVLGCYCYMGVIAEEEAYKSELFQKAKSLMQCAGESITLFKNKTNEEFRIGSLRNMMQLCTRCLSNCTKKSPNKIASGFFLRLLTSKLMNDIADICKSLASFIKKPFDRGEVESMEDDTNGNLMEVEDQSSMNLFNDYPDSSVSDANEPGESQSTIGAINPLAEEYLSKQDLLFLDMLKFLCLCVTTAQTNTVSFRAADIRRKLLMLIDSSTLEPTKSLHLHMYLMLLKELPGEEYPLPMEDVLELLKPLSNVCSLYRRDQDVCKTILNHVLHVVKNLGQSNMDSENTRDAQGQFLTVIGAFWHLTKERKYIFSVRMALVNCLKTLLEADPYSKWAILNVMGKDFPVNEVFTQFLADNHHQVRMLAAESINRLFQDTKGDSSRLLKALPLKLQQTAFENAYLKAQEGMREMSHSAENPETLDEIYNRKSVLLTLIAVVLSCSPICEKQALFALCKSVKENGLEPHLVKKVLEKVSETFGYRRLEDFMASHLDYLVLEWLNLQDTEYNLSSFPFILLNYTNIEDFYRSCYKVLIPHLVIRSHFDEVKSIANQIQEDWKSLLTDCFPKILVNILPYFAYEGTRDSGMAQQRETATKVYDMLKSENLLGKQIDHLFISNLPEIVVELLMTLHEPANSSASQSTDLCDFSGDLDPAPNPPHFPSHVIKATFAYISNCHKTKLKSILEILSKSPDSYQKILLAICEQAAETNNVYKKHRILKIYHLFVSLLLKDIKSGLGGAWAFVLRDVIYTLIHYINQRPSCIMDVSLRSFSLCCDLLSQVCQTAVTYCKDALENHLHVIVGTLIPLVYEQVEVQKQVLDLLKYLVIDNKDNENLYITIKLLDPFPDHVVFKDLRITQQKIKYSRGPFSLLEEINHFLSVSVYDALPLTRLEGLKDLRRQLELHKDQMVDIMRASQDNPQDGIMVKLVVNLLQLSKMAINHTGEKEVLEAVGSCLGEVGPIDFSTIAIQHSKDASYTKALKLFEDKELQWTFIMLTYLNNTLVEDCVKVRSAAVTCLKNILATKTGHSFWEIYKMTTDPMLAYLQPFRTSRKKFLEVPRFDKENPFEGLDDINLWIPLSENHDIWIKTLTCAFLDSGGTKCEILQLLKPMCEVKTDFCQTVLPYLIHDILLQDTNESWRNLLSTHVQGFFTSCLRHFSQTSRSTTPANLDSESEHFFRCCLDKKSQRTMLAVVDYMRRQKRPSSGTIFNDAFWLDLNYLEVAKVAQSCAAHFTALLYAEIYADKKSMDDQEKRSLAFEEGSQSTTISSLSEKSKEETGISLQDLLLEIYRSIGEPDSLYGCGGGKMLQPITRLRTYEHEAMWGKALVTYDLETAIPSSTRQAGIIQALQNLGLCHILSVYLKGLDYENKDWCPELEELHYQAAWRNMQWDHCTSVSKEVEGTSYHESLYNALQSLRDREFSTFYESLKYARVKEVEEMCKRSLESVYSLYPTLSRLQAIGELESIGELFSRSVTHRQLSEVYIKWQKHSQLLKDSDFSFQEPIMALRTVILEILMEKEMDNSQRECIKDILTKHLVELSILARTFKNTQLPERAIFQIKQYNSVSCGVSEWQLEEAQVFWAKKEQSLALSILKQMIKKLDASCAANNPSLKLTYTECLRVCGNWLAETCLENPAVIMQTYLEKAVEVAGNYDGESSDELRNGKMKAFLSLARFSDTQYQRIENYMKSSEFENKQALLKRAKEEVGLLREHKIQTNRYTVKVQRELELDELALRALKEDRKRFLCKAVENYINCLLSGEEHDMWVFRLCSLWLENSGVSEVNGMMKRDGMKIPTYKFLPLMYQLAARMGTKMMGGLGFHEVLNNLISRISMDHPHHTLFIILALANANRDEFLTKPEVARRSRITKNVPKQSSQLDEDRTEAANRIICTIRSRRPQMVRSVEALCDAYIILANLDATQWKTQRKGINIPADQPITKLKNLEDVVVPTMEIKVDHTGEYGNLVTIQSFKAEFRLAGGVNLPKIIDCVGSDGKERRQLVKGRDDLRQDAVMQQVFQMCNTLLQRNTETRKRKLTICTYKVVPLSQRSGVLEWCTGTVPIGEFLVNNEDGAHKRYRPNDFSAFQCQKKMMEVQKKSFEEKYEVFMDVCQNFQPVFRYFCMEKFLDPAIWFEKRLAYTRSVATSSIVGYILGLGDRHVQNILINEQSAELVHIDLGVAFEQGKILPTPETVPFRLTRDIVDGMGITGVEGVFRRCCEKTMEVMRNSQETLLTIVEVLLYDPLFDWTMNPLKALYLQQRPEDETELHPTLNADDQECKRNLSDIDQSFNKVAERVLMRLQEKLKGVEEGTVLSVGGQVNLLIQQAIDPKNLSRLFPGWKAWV

IC50 (ATM) | IC50 (DNA-PK) | Compound
1 to 100 nM | 0.5 to 1 nM | CN1C(=O)C2(CCC2)c2c1cnc1ccc(-c3cnc(OCCCN4CCCCC4)c(NS(=O)(=O)c4ccccc4F)c3)cc21 [Example 195, 2-Fluoro-N-(5-(3′-methyl-2′-oxo-2′,3′-dihydrospiro[cyclobutane-1,1′-pyrrolo[2,3-c]quinolin]-8′-yl)-2-(3-(piperidin-1-yl)propoxy)pyridin-3-yl) benzenesulfonamide hydrochloride]
1 to 100 nM | 1 to 100 nM | CN1C(=O)C2(CCC2)c2c1cnc1ccc(-c3cnc(OCCCN4CCCCC4)c(NS(=O)(=O)c4cc(F)cc(Cl)c4)c3)cc21 [Example 196, 3-Chloro-5-fluoro-N-(5-(3′-methyl-2′-oxo-2′,3′-dihydrospiro[cyclobulane-1,1′-pyrrolo[2,3-c]quinolin]-8′-yl)-2-(3-(piperidin-1-yl)propoxy)pyridin-3-yl)benzenesulfonamide hydrochloride]
1 to 100 nM | 0.5 to 1 nM | CN1C(=O)C2(CCC2)c2c1cnc1ccc(-c3cnc(OCCCN4CCCCC4)c(NS(=O)(=O)C4CC4)c3)cc21 [Example 197, N-(5-(3-Methyl-2′-oxo-2′,3′-dihydrospiro[cyclobulane-1,1′-pyrrolo[2,3-c]quinolin]-8′-yl)-2-(3-(piperidin-1-yl)propoxy)pyridin-3-yl)cyclopropanesulfonamide hydrochloride]
1 to 100 nM | < 0.5 nM | Cc1ccc(S(=O)(=O)Nc2cc(-c3ccc4ncc5c(c4c3)C3(CCC3)C(=O)N5C)cnc2N2CCC(N3CCCCC3)CC2)cn1 [Example 198, N-(2-([1,4′-Bipiperidin]-1′-yl)-5-(3′-methyl-2′-oxo-2′,3′-dihydrospiro[cyclobutane-1,1′-pyrrolo[2,3-c]quinolin]-8′-yl)pyridin-3-yl)-6-methylpyridine-3-sulfonamide hydrochloride]
1 to 100 nM | < 0.5 nM | CN1C(=O)C2(CCC2)c2c1cnc1ccc(-c3cnc(OCCCN4CCCCC4)c(NS(=O)(=O)c4cncs4)c3)cc21 [Example 199, N-(5-(3′-Methyl-2′-oxo-2′,3′-dihydrospiro[cyclobutane-1,1′-pyrrolo[2,3-c]quinolin]-8′-yl)-2-(3-(piperidin-1-yl)propoxy)pyridin-3-yl)thiazole-5-sulfonamide hydrochloride]
0.5 to 1 nM | < 0.5 nM | CN1CCN(S(=O)(=O)Nc2cc(-c3ccc4ncc5c(c4c3)C3(CCC3)C(=O)N5C)cnc2OCCCN2CCCCC2)CC1 [Example 200]
1 to 100 nM | < 0.5 nM | Cc1ccc(S(=O)(=O)Nc2cc(-c3ccc4ncc5c(c4c3)C3(CCC3)C(=O)N5C)cnc2N2CCN(C)CC2)cn1 [Example 201, 6-Methyl-N-(5-(3′-methyl-2′-oxo-2′,3′-dihydrospiro[cyclobutane-1,1′-pyrrolo[2,3-c]quinolin]-8′-yl)-2-(4-methylpiperazin-1-yl)pyridin-3-yl)pyridine-3-sulfonamide]
0.5 to 1 nM | < 0.5 nM | CN1C(=O)C2(CCC2)c2c1cnc1ccc(-c3cnc(OCCCN4CCCCC4)c(NS(=O)(=O)N4CCNCC4)c3)cc21 [Example 202, N-(5-(3′-Methyl-2′-oxo-2′,3′-dihydrospiro[cyclobutane-1,1′-pyrrolo[2,3-c]quinolin]-8′-yl)-2-(3-(piperidin-1-yl)propoxy)pyridin-3-yl)piperazine-1-sulfonamide]
1 to 100 nM | 0.5 to 1 nM | CN1C(=O)C2(CCC2)c2c1cnc1ccc(-c3cnc(N4CCC(N5CCCCC5)CC4)c(NS(=O)(=O)c4ccccc4F)c3)cc21 [Example 203]
1 to 100 nM | 0.5 to 1 nM | Cc1ccc(S(=O)(=O)Nc2cc(-c3ccc4ncc5c(c4c3F)C3(CCC3)C(=O)N5C)cnc2OCCCN(C)C)cc1 [Example 204, N-(2-(3-(Dimethylamino)propoxy)-5-(9′-fluoro-3′-methyl-2′-oxo-2′,3′-dihydrospiro[cyclobutane-1,1′-pyrrolo[2,3-c]quinolin]-8′-yl)pyridin-3-yl)-4-methylbenzenesulfonamide]
1 to 100 nM | < 0.5 nM | CN(C)CCCOc1ncc(-c2ccc3ncc4c(c3c2)C2(CCC2)C(=O)N4C)cc1NS(=O)(=O)C1COC1 [Example 205, N-(2-(3-(Dimethylamino)propoxy)-5-(3′-methyl-2′-oxo-2′,3′-dihydrospiro[cyclobutane-1,1′-pyrrolo[2,3-c]quinolin]-8′-yl)pyridin-3-yl)oxetane-3-sulfonamide]
1 to 100 nM | < 0.5 nM | CN1C(=O)C2(CCC2)c2c1cnc1ccc(-c3cnc(N4CCC(N5CCCCC5)CC4)c(NS(=O)(=O)c4ccc(F)cc4F)c3)cc21 [Example 206, N-(2-([1,4′-Bipiperidin]-1′-yl)-5-(3′-methyl-2′-oxo-2′,3′-dihydrospiro[cyclobutane-1,1′-pyrrolo[2,3-c]quinolin]-8′-yl)pyridin-3-yl)-2,4-difluorobenzenesulfonamide hydrochloride]
1 to 100 nM | < 0.5 nM | CN1C(=O)C2(CCC2)c2c1cnc1ccc(-c3cnc(N4CCC(N5CCCCC5)CC4)c(NS(=O)(=O)C4CC4)c3)cc21 [Example 207, N-(2-([1,4′-Bipiperidin]-1′-yl)-5-(3′-methyl-2′-oxo-2′,3′-dihydrospiro[cyclobutane-1,1′-pyrrolo[2,3-c]quinolin]-8′-yl)pyridin-3-yl)cyclopropanesulfonamide hydrochloride]
1 to 100 nM | < 0.5 nM | CN1C(=O)C2(CCC2)c2c1cnc1ccc(-c3cnc(N4CCC(N5CCCCC5)CC4)c(NS(=O)(=O)N(C)C)c3)cc21 [Example 208, 8′-(6-{[1,4′-Bipiperidine]-1′-yl}-5-[(dimethylsulfamoyl)amino]pyridin-3-yl)-3′-methyl-2′,3′-dihydrospiro[cyclobutane-1,1′-pyrrolo[2,3-c]quinoline]-2′-one]
1 to 100 nM | 1 to 100 nM | CCN(C)S(=O)(=O)Nc1cc(-c2ccc3ncc4c(c3c2)C2(CCC2)C(=O)N4C)cnc1N1CCC(N2CCCCC2)CC1 [Example 212, 8′-(6-{[1,4′-Bipiperidine]-1′-yl}-5-[(ethyl(methyl)sulfamoyl)amino}pyridin-3-yl)-3′-methyl-2′,3′-dihydrospiro[cyclobutane-1,1′-pyrrolo[2,3-c]quinoline]-2′-one]
1 to 100 nM | 1 to 100 nM | CN1C(=O)C2(CC2)c2c1cnc1ccc(-c3cnc(N4CCC(N5CCCCC5)CC4)c(NS(=O)(=O)c4ccccc4)c3)cc21 [Example 213, N-(2-([1,4′-Bipiperidin]-1′-yl)-5-(3′-methyl-2′-oxo-2′,3′-dihydrospiro[cyclopropane-1,1′-pyrrolo[2,3-c]quinolin]-8′-yl)pyridin-3-yl)benzenesulfonamide methanesulfonate]
0.5 to 1 nM | 0.5 to 1 nM | CCN(C)S(=O)(=O)Nc1cc(-c2ccc3ncc4c(c3c2)C2(CC2)C(=O)N4C)cnc1N1CCC(N2CCCCC2)CC1 [Example 214]
0.5 to 1 nM | < 0.5 nM | Cc1ccc(S(=O)(=O)Nc2cc(-c3ccc4ncc5c(c4c3F)C3(CC3)C(=O)N5C)cnc2OCCCN(C)C)cc1 [Example 215, N-(2-(3-(Dimethylamino)propoxy)-5-(9′-fluoro-3′-methyl-2′-oxo-2′,3′-dihydrospiro[cyclopropane-1,1′-pyrrolo[2,3-c]quinolin]-8′-yl)pyridin-3-yl)-4-methylbenzenesulfonamide]
1 to 100 nM | 1 to 100 nM | Cc1ccc(S(=O)(=O)n2c(CCN3CCCCC3)cc3ncc(-c4ccc5ncc6c(c5c4)C4(CCC4)C(=O)N6C)cc32)cn1 [Example 216, 3′-Metbyl-8′-(1-((6-methylpyridin-3-yl)sulfonyl)-2-(2-(piperidin-1-yl)ethyl)-1H-pyrrolo[3,2-b]pyridin-6-yl)spiro[cyclobutane-1,1′-pyrrolo[2,3-c]quinolin]-2′(3′-H)-one]
1 to 100 nM | 1 to 100 nM | Cc1ccc(S(=O)(=O)Nc2cc(-c3cc4c5c(cnc4cc3F)N(C)C(=O)C53CCC3)cnc2OCCCN2CCCCC2)cn1 [Example 217, N-(5-(7′-Fluoro-3′-methyl-2′-oxo-2′,3′-dihydrospiro[cyclobulane-1,1′-pyrrolo[2,3-c]quinolin]-8′-yl)-2-(3-(piperidin-1-yl)propoxy)pyridin-3-yl)-6-methylpyridine-3-sulfonamide hydrochloride]
1 to 100 nM | < 0.5 nM | Cc1ccc(S(=O)(=O)Nc2cc(-c3ccc4ncc5c(c4c3)C3(CC3)C(=O)N5C)cnc2N2CCC(N3CCCCC3)CC2)cn1 [Example 218]
1 to 100 nM | < 0.5 nM | CN(C)CCCOc1ncc(-c2ccc3ncc4c(c3c2)C2(CCC2)C(=O)N4C)cc1NS(=O)(=O)c1ccc(O)cc1 [Example 220, N-(2-(3-(Dimethylamino)propoxy)-5-(3′-methyl-2′-oxo-2′,3′-dihydrospiro [cyclobutane-1,1′-pyrrolo[2,3-c]quinolin]-8′-yl)pyridin-3-yl)-4-hydroxybenzenesulfonamide hydrochloride]
1 to 100 nM | 0.5 to 1 nM | Cl.[2H]C1([2H])N(CCCOc2ncc(-c3ccc4ncc5c(c4c3)C3(CCC3)C(=O)N5C)cc2NS(=O)(=O)c2ccc(C)nc2)C([2H])([2H])C([2H])([2H])C([2H])([2H])C1([2H])[2H] [Example 221, 6-Methyl-N-(5-(3′-methyl-2′-oxo-2′,3′-dihydrospiro[cyclobulane-1,1′-pyrrolo[2,3-c]quinolin]-8′-yl)-2-(3-(piperidin-1-yl-d10)propoxy)pyridin-3-yl)pyridine-3-sulfonamide hydrochloride]
1 to 100 nM | 1 to 100 nM | CCN(C)S(=O)(=O)Nc1cc(-c2ccc3ncc4c(c3c2)C2(CCC2)C(=O)N4C)cnc1OCCCN1CCCCC1 [Example 222, 8′-(5-{[Ethyl(methyl)sulfamoyl]amino}-6-[3-(piperidin-1-yl)propoxy]pyridin-3-yl)-3′-methyl-2′,3′-dihydrospiro [cyclobutane-1,1′-pyrrolo[2,3-c]quinoline]-2′-one]
